From ChEMBL document CHEMBL3774389, “C-3 benzoic acid derivatives of C-3 deoxybetulinic acid and deoxybetulin as HIV-1 maturation inhibitors” (Bioorg Med Chem, 2016)

Assays:
[1] = Solubility of the compound; assay type: physicochemical
[2] = AUC(0 to 6 hrs) in rat at 5 mg/kg, po by LC-MS/MS; assay type: ADME, organism-based; parameters: time < 6 hr, dose 5 mg/kg, route oral; settings: in vivo
[3] = Displacement of [3H]-dihydro-bevirimat from HIV1 Gag polyprotein virus like particles after 3 hrs; parameters: species or system Human immunodeficiency virus 1
[4] = system: HEK-293T; assay: Binding affinity to HIV1 Gag polyprotein assessed as protease-mediated p25-Spacer peptide 1 cleavage in HEK293T cells by measuring […] ratio at 2 uM by Western blot analysis; assay type: cell-based; settings: Human immunodeficiency virus 1
[5] = Half life in human liver microsomes at 0.5 uM by LC-MS/MS analysis in presence of NADPH; assay type: ADME
[6] = Cytotoxicity against human MT2 cells assessed as cell viability by redox dye assay; assay type: cell-based
[7] = system: Human immunodeficiency virus 1; assay: Antiviral activity against wild type HIV1 NLRepRlucP373S infected in human MT2 cells after 4 to 5 days in presence of 27 mg/ml HSA by luciferase report gene based multiple cycle drug susceptibility assay; assay type: functional, organism-based; settings: Human immunodeficiency virus 1, NLRepRlucP373S
[8] = Oral bioavailability in rat at 5 mg/kg by LC-MS/MS; assay type: ADME, organism-based; settings: in vivo
[9] = Tmax in rat at 5 mg/kg, po by LC-MS/MS; assay type: ADME, organism-based; settings: in vivo
[10] = Half life in rat liver microsomes at 0.5 uM by LC-MS/MS analysis in presence of NADPH; assay type: ADME
[11] = Clearance in cannula implanted rat at 1 mg/kg, iv by LC-MS/MS; assay type: ADME, organism-based; settings: in vivo
[12] = Cmax in rat at 5 mg/kg, po by LC-MS/MS; assay type: ADME, organism-based; parameters: dose 5 mg/kg, route oral; settings: in vivo
[13] = Volume of distribution in steady state in cannula implanted rat at 1 mg/kg, iv by LC-MS/MS; assay type: ADME, organism-based; settings: in vivo, read-out: Vdss
[14] = system: Human immunodeficiency virus 1; assay: Antiviral activity against wild type HIV1 NLRepRlucP373S infected in human MT2 cells after 4 to 5 days by luciferase report gene based multiple cycle drug susceptibility assay; assay type: functional, organism-based; settings: Human immunodeficiency virus 1, NLRepRlucP373S
[15] = system: Human immunodeficiency virus 1; assay: Antiviral activity against HIV1 containing gag V370A mutant infected in human MT2 cells after 4 to 5 days by luciferase report gene based multiple cycle drug susceptibility assay; assay type: functional, organism-based; settings: Human immunodeficiency virus 1, MT2
[16] = system: Human immunodeficiency virus 1; assay: Antiviral activity against wild type HIV1 NLRepRlucP373S infected in human MT2 cells after 4 to 5 days in presence of 15 mg/ml HSA by luciferase report gene based multiple cycle drug susceptibility assay; assay type: functional, organism-based; settings: Human immunodeficiency virus 1, NLRepRlucP373S
[17] = system: Human immunodeficiency virus 1; assay: Ratio of EC50 for HIV1 NLRepRlucP373S infected in human MT2 cells in presence of HSA to EC50 for HIV1 NLRepRlucP373S infected in human MT2 cells in absence of HSA; assay type: functional
[18] = Protein binding of the compound in plasma (unknown origin); assay type: ADME, cell-free; settings: read-out: PB

| Compound | solubility [1] | AUC(0-t) at 6 h [2] [µM·h] | IC50 [3] [nM] | Ratio [4] | half-life at 0.5 µM [5] [h] | CC50 [6] [nM] | EC50 [7] [nM] | bioavailability [8] [%] | Tmax [9] [h] | half-life at 0.5 µM [10] [h] | clearance [11] [mL/min/kg] | Cmax [12] [nM] | Vd [13] [L/kg] | EC50 [14] [nM] | EC50 [15] [nM] | EC50 [16] [nM] | Ratio EC50 [17] | fraction unbound [18] |
| --- | --- | --- | --- | --- | --- | --- | --- | --- | --- | --- | --- | --- | --- | --- | --- | --- | --- | --- |
| C=C(C)[C@@H]1CC[C@]2(C(=O)O)CC[C@]3(C)[C@H](CC[C@@H]4[C@@]5(C)CC=C(c6ccc(C(=O)O)cc6)C(C)(C)[C@@H]5CC[C@]43C)[C@@H]12 | Insoluble | 5.72 | 27 | 1.6 | 2 | 27200 | 310 | 4 | 4 | 2 | 1 | 1310 | 0.2 |  |  |  |  |  |
| C=C(C)[C@@H]1CC[C@]2(CO)CC[C@]3(C)[C@H](CC[C@@H]4[C@@]5(C)CC=C(c6ccc(C(=O)O)cc6)C(C)(C)[C@@H]5CC[C@]43C)[C@@H]12 | Insoluble | 2.14 |  |  | 2 | 9650 |  | 4 | 5 | 2 | 2.1 | 590 | 0.5 | 11 | 212 | 27 | 2.5 |  |
| C=C(C)[C@@H]1CC[C@]2(C(=O)O)CC[C@]3(C)[C@H](CC[C@@H]4[C@@]5(C)CC[C@H](OC(=O)CC(C)(C)C(=O)O)C(C)(C)[C@@H]5CC[C@]43C)[C@@H]12 [BEVIRIMAT] |  |  |  |  |  |  |  | 18 | 0.3 |  | 4 | 2590 |  |  |  |  |  | < 0.001 |
| C=C(C)[C@@H]1CC[C@]2(C(=O)O)CC[C@]3(C)[C@H](CC[C@@H]4[C@@]5(C)CC=C(c6ccc(C(=O)O)c(F)c6)C(C)(C)[C@@H]5CC[C@]43C)[C@@H]12 |  |  |  |  |  | 10100 |  |  |  |  |  |  |  | 18 | 36 | 67 | 3.7 |  |
| C=C(C)[C@@H]1CC[C@]2(C(=O)O)CC[C@]3(C)[C@H](CC[C@@H]4[C@@]5(C)CC=C(c6ccc(C(=O)O)c(Cl)c6)C(C)(C)[C@@H]5CC[C@]43C)[C@@H]12 |  |  |  |  |  | 3080 |  |  |  |  |  |  |  | 21 | 589 | 331 | 15 |  |
| C=C(C)[C@@H]1CC[C@]2(CO)CC[C@]3(C)[C@H](CC[C@@H]4[C@@]5(C)CC=C(c6ccc(C(=O)O)c(O)c6)C(C)(C)[C@@H]5CC[C@]43C)[C@@H]12 |  |  |  |  |  | 9760 |  |  |  |  |  |  |  | 81 | 2780 | 65 | 0.8 |  |
